Laboratory results taken from patent US20130345392A1, “EDN3-LIKE PEPTIDES AND USES THEREOF” (Pfizer Inc, priority 2011, published 2013).
Entries after “also recorded” stand apart in the source; their conditions may differ. Bridges are numbered along the chain shown (N, C = ends). Where no end group is shown, it is not given here.

Key:
Insulin tolerance test = format: in vivo; details: 1 and 10 mg/kg i.p., acute administration (data not shown)
C57BL6J male mice = experiment: Indirect calorimetry and telemetry in mice after injection into the preoptic area; format: in vivo, mouse; details: 2.5 nmol by direct injection into the POA
Description: C57BL6J male mice (3-4 months old, 25-30 g, 6 mice per group) were purchased from Harlan. […] Energy expenditure measures (VO2, VCO2 and heat formation ((3.815+1.232*RER)*VO2 (in liters)) were corrected for estimated effective metabolic mass per Kleiber's power function (Kleiber, 1947). Mice undergoing indirect calorimetry were acclimated to the respiratory chambers for 3-4 days before the onset of study. Data were recorded under ambient room temperature clamped at 25° C., beginning from the onset of the light cycle (12:12 hour light-dark cycle; lights on at 6:00 a.m.) for 3 days. Treatments were administered directly to the POA via an implanted cannula (anterior from bregma: 0.3 mm, midline, ventral: 3.8 mm, cannula 26 GA, 10 mm length) using an injector (33 GA, protruding 0.4 mm beyond the tip of the cannula, total length 10.4 mm) connected to plastic tubing and a microsyringe (10 μL) in a volume of 0.5 μL over a period of 5 minutes to allow diffusion. […]

GLUTag cells = details: GLUTag cells
[1] = biological target: T1, human endothelin ETB receptor (Homo sapiens, UniProt P24530); experiment: Radioligand binding, human endothelin ETB receptor in transfected CHO cell membranes; details: tested at a concentration of up to 3 μM (p>0.05)
T1 construct: expressed in transfected cells; host or cells: CHO cells
T1 sequence (P24530 27-442): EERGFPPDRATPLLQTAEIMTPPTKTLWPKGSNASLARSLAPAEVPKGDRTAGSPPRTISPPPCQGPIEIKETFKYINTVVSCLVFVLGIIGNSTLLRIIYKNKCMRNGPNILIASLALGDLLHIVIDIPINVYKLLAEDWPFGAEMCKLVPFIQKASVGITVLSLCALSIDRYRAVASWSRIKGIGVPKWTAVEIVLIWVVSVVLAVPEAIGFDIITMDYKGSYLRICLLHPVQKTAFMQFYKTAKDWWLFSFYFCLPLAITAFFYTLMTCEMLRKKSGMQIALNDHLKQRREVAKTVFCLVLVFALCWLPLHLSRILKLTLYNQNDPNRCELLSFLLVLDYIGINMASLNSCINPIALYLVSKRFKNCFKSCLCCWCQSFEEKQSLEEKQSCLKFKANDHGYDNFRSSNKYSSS
Description: To evaluate the affinity of EDN3 97-140 for the agonist site of the human endothelin ETB receptor in transfected CHO cells, radioligand binding was used. […] Following incubation, the samples were filtered rapidly under vacuum through glass fiber filters (GF/B, Packard) presoaked with 0.1% BSA and rinsed several times with an ice-cold buffer containing 50 mM Tris-HCl and 150 mM NaCl using a 96-sample cell harvester (Unifilter, Packard). The filters were dried then counted for radioactivity in a scintillation counter (Topcount, Packard) using a scintillation cocktail (Microscint 0, Packard).

INS1 cells = experiment: Glucose-stimulated insulin release from INS1 cells; format: cell-based; details: 10 μM (data not shown)
rat perfused colon = experiment: GLP-1 secretion from rat perfused colon ex vivo
Description: Ex vivo rat colon vascular perfusion experiments were performed as previously described (Plaisancié, 1995). Male Sprague-Dawley rats (300 g) were purchased from Charles River and fed ad libitum with Purina Lab Chow #5001 (WF Fisher and Son Inc Sommerville, N.J.). Rats were decapitated and the abdomen was opened with a midline incision. […] The arterial vascular perfusion started immediately with an oxygenated Krebs-Henseleit buffer containing-solution at a rate of 2 mL/minute [solution: Krebs-Henseleit buffer (25.0 mM NaHCO3; 118 mM NaCl; 4.7 mM KCl; 1.2 mM MgSO4; 1.2 mM KH2PO4; 2.5 mM CaCl2) with 3% BSA, 5 mM glucose, MEM essential and nonessential amino acids (pH 7.4)]. The colonal lumen was perfused at the rate of 0.5 mL/minute. The remaining colon and small intestine were removed after the ligation of their respective supplying vessels. After the colon preparation was transferred to a 37° C. tissue bath, the portal effluent was collected as 5 minute fractions. The fraction aliquots were frozen at −20° C. for subsequent determinations of GLP-1. EDN3 97-140 was dissolved at 200 nM in vascular perfusion solution and perfused into the artery after a 30 minute baseline collection. […] The GLP-1 detection assay was carried out by using a commercial kit for active GLP-1 (7-36) amide according to the manufacturer's instructions (Millipore). GLP-1 release data was normalized to % baseline using the average of fractions collected prior to treatment as the baseline value and the peak data following each treatment. The average data across 3 independent experiments was reported comparing EDN3 97-140 versus control (baseline) and forskolin versus control (baseline). Statistical analysis was performed by one sided Satterwaite's test due to unequal variance and the Holm test was applied to account for multiple comparisons.

CTCFTYKDKECVYYCHLDIIWINTPEQTVPYGLSNYRESLRGKR-NH2 (disulfide 1-15, 3-11) [EDN3 97-140]
effect on insulin tolerance test (Insulin tolerance test): no effect
locomotor activity (C57BL6J male mice): transient spike of increased locomotor activity; also recorded: transient increase in locomotor activity
stimulated GLP-1 secretion (GLUTag cells; 1 μM, vehicle pre-treatment): 327±59 % of vehicle
GLP-1 secretion from GLUTag cells, result in words (GLUTag cells; endothelin-3 at highest concentration 10 μM): most potent peptide tested
EC50 (GLUTag cells; read-out: EC50, GLP-1 release GLUTag assay, 15 mM glucose): 369 nM
binding to ETB receptor [1]: failed to bind
modulation of glucose-stimulated insulin release from INS1 cells (INS1 cells): failed to modulate
increase in GLP secretion from the rat perfused colon (rat perfused colon; 200 nM perfused via the superior mesenteric artery, vs baseline, p=0.0438): 56±18%
increase in GLP-1 release (rat perfused colon; 200 nM, rat perfused colon): ~10 pM
